The assay addresses T1, VAV1 (Homo sapiens, UniProt P15498+Q96SW2).
T1 construct: A heterozygous VAV1 C-terminal HiBiT knock-in pool was generated at Monte Rosa Therapeutics from a clonal Jurkat cell; endogenous in cells; host or cells: Jurkat clone stably expressing LgBiT, homozygous GSPT1-G575N; heterozygous VAV1-HiBiT knock-in pool
In words: VAV1 degradation activity, VAV1-HiBiT knock-in Jurkat luminescence assay (Example A, Table 1). The format is cell-based. The note with it: VAV1-HiBiT knock-in Jurkat cells; for Dmax: Jurkat. As for the experimental part:
Cells were plated at 10,000 cells per well using Multiflo (BioTek) or Multi Drop Combi (Thermo Fisher) in 384-well white solid bottom plates (Corning, 3570BC) in 25 ul volume in RPMI 1640 media (Thermo Fischer, 22400105) containing 10% FBS (Corning, 35-075-CV), 1% Penicillin/Streptomycin (ThermoFisher Scientific, 15140-122), and 1% Endurazine (Nano-Glo Endurazine Live Cell Substrate (Promega, N2571)). Cells were incubated for ˜16 hours at 37° C., 5% CO2. 25 nL of a compound at 10 μM were dosed into the plate using an Echo® 650 liquid handler (Labcyte). Cells were incubated at 37° C., 5% CO2 and signal was read at 6 and 24 hours after compound addition on a Pherastar FSX using “LUM plus” optic module.
Analysis was performed in Scinamic (Scinamic, Cambridge, MA). Luminescence response (R) was calculated by the formula: response=100*(S−N)/(P−N) where S is the signal of the well, N and P the mean negative and positive control values respectively of the same plate. The luminescence response was then fitted in Scinamic using a 3-parameter agonist logistic fit (hillslope=1, EC50>0, top/bottom unconstrained).

Where [1] appears, read: luminescence read at 6 and 24 hours, read-out: VAV1 Dmax %.
The mark [2] stands for this setting: luminescence read at 6 and 24 hours, read-out: VAV1 Dmax %, class.
Setting [3] is: luminescence read at 6 and 24 hours, read-out: VAV1 DC50.
The mark [4] stands for this setting: luminescence read at 6 and 24 hours, read-out: VAV1 DC50 (nM), class.
[5] abbreviates: luminescence read at 6 and 24 hours after compound addition, read-out: VAV1 Dmax %.
[6] abbreviates: luminescence read at 6 and 24 hours after compound addition, read-out: VAV1 Dmax %, class.
Where [7] appears, read: luminescence read at 6 and 24 hours after compound addition, read-out: VAV1 DC50.
Where [8] appears, read: luminescence read at 6 and 24 hours after compound addition, read-out: VAV1 DC50 (nM), class.

Here are results for 24 compounds from US12257247B2 (Monte Rosa Therapeutics AG, priority 2023, dated 2025).

Read-outs that look alike come from different tables or passages of the source.

With `O=C1CCC(c2cccc(-c3ccc(N4C(=O)OCC45CCC5)cc3)c2Cl)C(=O)N1` (stereo not drawn) [Compound 416, 3-(2-chloro-4′-(6-oxo-7-oxa-5-azaspiro[3.4]octan-5-yl)-[1,1′-biphenyl]-3-yl)piperidine-2,6-dione], the Dmax was 98% under setting [1] and > 90% under setting [2]. The DC50 reads like this: under setting [3], 3.54 nM; under setting [4], ≤ 100 nM.

Regarding `N#CC1(CN2C(=O)Cc3cc(-c4cccc(C5CCC(=O)NC5=O)c4Cl)ccc32)CC1` (stereo not drawn) [Compound 390, 1-((5-(2-chloro-3-(2,6-dioxopiperidin-3-yl)phenyl)-2-oxoindolin-1-yl)methyl)cyclopropane-1-carbonitrile], the maximal degradation (Dmax) by setting is: under setting [1], 71.2%; under setting [2], 60 to 90%. The DC50 by setting is: under setting [3], 615 nM; under setting [4], 100 to 1000 nM.

As for `CC1(C)COC(=O)N1c1ccc(-c2cccc(C3CCC(=O)NC3=O)c2Cl)cc1` (stereo not drawn) [Compound 415, 3-(2-chloro-4′-(4,4-dimethyl-2-oxooxazolidin-3-yl)-[1,1′-biphenyl]-3-yl)piperidine-2,6-dione], the maximal degradation (Dmax) runs as follows: under setting [1], 97.2%; under setting [2], > 90%. In addition, the 50% degradation concentration (DC50) is, setting by setting: under setting [3], 4.87 nM; under setting [4], ≤ 100 nM.

On to `O=C1CCC(c2cccc(-c3ccc(Cc4nccc(C5CC5)n4)cc3)c2Cl)C(=O)N1` (stereo not drawn) [Compound 344, 3-(2-chloro-4′-((4-cyclopropylpyrimidin-2-yl)methyl)-[1,1′-biphenyl]-3-yl)piperidine-2,6-dione], for which the Dmax is, setting by setting: under setting [1], 98%; under setting [2], > 90%. The DC50 by setting is: under setting [3], 6.97 nM; under setting [4], ≤ 100 nM.

Turning to `O=C1CCC(c2cccc(-c3ccc(Cc4ccncn4)cc3)c2Cl)C(=O)N1` (stereo not drawn) [Compound 401, 3-(2-chloro-4′-(pyrimidin-4-ylmethyl)-[1,1′-biphenyl]-3-yl)piperidine-2,6-dione], the maximal degradation (Dmax) runs as follows: under setting [1], 94.4%; under setting [2], > 90%. The DC50 runs as follows: under setting [3], 15 nM; under setting [4], ≤ 100 nM.

As for `Cn1ccc(COc2ccc(-c3cccc(C4CCC(=O)NC4=O)c3F)cc2)n1` (stereo not drawn) [Compound 150, 3-(2-fluoro-4′-((1-methyl-1H-pyrazol-3-yl)methoxy)-[1,1′-biphenyl]-3-yl)piperidine-2,6-dione], the Dmax reads like this: under setting [1], 84.2%; under setting [2], 60 to 90%. Also, the DC50 by setting is: under setting [3], 48 nM; under setting [4], ≤ 100 nM.

As to `O=C1CCC(c2cccc(-c3ccc(OCC4CCCO4)cc3)c2Cl)C(=O)N1` (stereo not drawn) [Compound 119], the Dmax is, setting by setting: under setting [1], 87.1%; under setting [2], 60 to 90%. The half-maximal degradation concentration (DC50) was 69.3 nM under setting [3] and ≤ 100 nM under setting [4].

With `O=C1CCC(c2cccc(-c3ccc4c(c3)CCC(=O)N4)c2Cl)C(=O)N1` (stereo not drawn) [Compound 492, 3-(2-chloro-3-(2-oxo-1,2,3,4-tetrahydroquinolin-6-yl)phenyl)piperidine-2,6-dione], the greatest degradation seen (Dmax) reads like this: under setting [5], 94.3%; under setting [6], > 90%. In addition, the half-maximal degradation concentration (DC50) reads like this: under setting [7], 10.7 nM; under setting [8], ≤ 100 nM.

For the compound `CN1CC(=O)N(c2ccc(-c3cccc(C4CCC(=O)NC4=O)c3Cl)cc2)c2cccnc21` (stereo not drawn) [Compound 335], the greatest degradation seen (Dmax) is, setting by setting: under setting [1], 97.3%; under setting [2], > 90%. The DC50 is, setting by setting: under setting [3], 5.87 nM; under setting [4], ≤ 100 nM.

As to `O=C1CCC(c2cccc(-c3ccc(N4CCN(CC(F)(F)F)CC4=O)cc3)c2Cl)C(=O)N1` (stereo not drawn) [Compound 445, 3-(2-chloro-4′-(2-oxo-4-(2,2,2-trifluoroethyl)piperazin-1-yl)-[1,1′-biphenyl]-3-yl)piperidine-2,6-dione], the Dmax is 96% under setting [1] and > 90% under setting [2]. The DC50 was 11.5 nM under setting [3] and ≤ 100 nM under setting [4].

With `O=C1CCC(c2cccc(-c3ccc(N4CCOC(F)(F)C4=O)cc3)c2Cl)C(=O)N1` (stereo not drawn) [Compound 320], the greatest degradation seen (Dmax) was 84.9% under setting [1] and 60 to 90% under setting [2]. For the same compound, the DC50 under setting [3] is 102 nM and the DC50 under setting [4] is 100 to 1000 nM.

Consider `O=C1CCC(c2cccc(-c3ccc(N4C(=O)C5CC4C5)cc3)c2Cl)C(=O)N1` (stereo not drawn) [Compound 481, 3-(2-chloro-4′-{3-oxo-2-azabicyclo[2.1.1]hexan-2-yl}-[1,1′-biphenyl]-3-yl)piperidine-2,6-dione], for which the Dmax under setting [1] was 46% and the Dmax under setting [2] is < 60%. Besides, the DC50 by setting is: under setting [3], ≥ 10000 nM; under setting [4], > 1000 nM.

Regarding `CN1CC(=O)N(Cc2ccc(-c3cccc(C4CCC(=O)NC4=O)c3Cl)cc2)CC12COC2` (stereo not drawn) [Compound 259], the Dmax is 90% under setting [1] and > 90% under setting [2]. Further, the DC50 is, setting by setting: under setting [3], 28.1 nM; under setting [4], ≤ 100 nM.

In the case of `Cn1cccc(N2CCc3cc(-c4cccc(C5CCC(=O)NC5=O)c4Cl)ccc32)c1=O` (stereo not drawn) [Compound 509, 3-(2-chloro-3-(1-(1-methyl-2-oxo-1,2-dihydropyridin-3-yl)indolin-5-yl)phenyl)piperidine-2,6-dione], the greatest degradation seen (Dmax) under setting [5] was 97.8% and the Dmax under setting [6] is > 90%. Moreover, the DC50 was 3.85 nM under setting [7] and ≤ 100 nM under setting [8].

For the compound `CCNc1ccc(-c2cccc(C3CCC(=O)NC3=O)c2Cl)cc1` (stereo not drawn) [Compound 115], the maximal degradation (Dmax) runs as follows: under setting [1], 80.9%; under setting [2], 60 to 90%. For the same compound, the 50% degradation concentration (DC50) was 125 nM under setting [3] and 100 to 1000 nM under setting [4].

Consider `O=C1CCC(c2cccc(-c3ccc(N4CC(C(F)(F)F)OCC4=O)cc3)c2Cl)C(=O)N1` (stereo not drawn) [Compound 306], for which the Dmax reads like this: under setting [1], 89.1%; under setting [2], 60 to 90%. Besides, the DC50 by setting is: under setting [3], 49.2 nM; under setting [4], ≤ 100 nM.

In the case of `O=C1CCC(c2cccc(-c3ccc(CC(=O)N4CCCC4)cc3)c2Cl)C(=O)N1` (stereo not drawn) [Compound 235, 3-(2-chloro-4′-(2-oxo-2-(pyrrolidin-1-yl)ethyl)-[1,1′-biphenyl]-3-yl)piperidine-2,6-dione], the maximal degradation (Dmax) runs as follows: under setting [1], 97.1%; under setting [2], > 90%. The 50% degradation concentration (DC50) is 3.87 nM under setting [3] and ≤ 100 nM under setting [4].

Turning to `Cn1ccc(CCc2ccc(-c3cccc(C4CCC(=O)NC4=O)c3Cl)cn2)n1` (stereo not drawn) [Compound 249, 3-(2-chloro-3-(6-(2-(1-methyl-1H-pyrazol-3-yl)ethyl)pyridin-3-yl)phenyl)piperidine-2,6-dione], the Dmax reads like this: under setting [1], 48.9%; under setting [2], < 60%. Also, the half-maximal degradation concentration (DC50) reads like this: under setting [3], 7400 nM; under setting [4], > 1000 nM.

Regarding `CN1CCCN(c2ccc(-c3cccc(C4CCC(=O)NC4=O)c3Cl)cn2)C1=O` (stereo not drawn) [Compound 435, 3-(2-chloro-3-(6-(3-methyl-2-oxotetrahydropyrimidin-1(2H)-yl)pyridin-3-yl)phenyl)piperidine-2,6-dione], the Dmax was 70.8% under setting [1] and 60 to 90% under setting [2]. In addition, the DC50 was 330 nM under setting [3] and 100 to 1000 nM under setting [4].

On to `Cn1ccc(COc2ccc(-c3cccc([C@@H]4CCC(=O)NC4=O)c3Cl)cc2)n1` [Compound 209, (S)-3-(2-chloro-4′-((1-methyl-1H-pyrazol-3-yl)methoxy)-[1,1′-biphenyl]-3-yl)piperidine-2,6-dione], for which the Dmax by setting is: under setting [1], 93.3%; under setting [2], > 90%. The DC50 by setting is: under setting [3], 7.35 nM; under setting [4], ≤ 100 nM.

On to `Cc1ccn(C)c(=O)c1-c1ccc(-c2cccc(C3CCC(=O)NC3=O)c2Cl)cc1` (stereo not drawn) [Compound 448, 3-(2-chloro-4′-(1,4-dimethyl-2-oxo-1,2-dihydropyridin-3-yl)-[1,1′-biphenyl]-3-yl)piperidine-2,6-dione], for which the greatest degradation seen (Dmax) runs as follows: under setting [1], 98.7%; under setting [2], > 90%. For the same compound, the DC50 by setting is: under setting [3], 1.63 nM; under setting [4], ≤ 100 nM.

Take `O=C1CCC(c2cccc(-c3ccc(N4CCCCC4=O)c(F)c3)c2Cl)C(=O)N1` (stereo not drawn) [Compound 461, 3-(2-chloro-3′-fluoro-4′-(2-oxopiperidin-1-yl)-[1,1′-biphenyl]-3-yl)piperidine-2,6-dione]: the maximal degradation (Dmax) is 96.2% under setting [1] and > 90% under setting [2]. For the same compound, the 50% degradation concentration (DC50) reads like this: under setting [3], 10.1 nM; under setting [4], ≤ 100 nM.

Turning to `O=C1CCC(c2cccc(-c3ccc(-n4ccccc4=O)nc3)c2Cl)C(=O)N1` (stereo not drawn) [Compound 477, 3-(2-chloro-3-(2-oxo-2H-[1,2′-bipyridin]-5′-yl)phenyl)piperidine-2,6-dione], the greatest degradation seen (Dmax) runs as follows: under setting [1], 88.7%; under setting [2], 60 to 90%. Also, the DC50 reads like this: under setting [3], 65.6 nM; under setting [4], ≤ 100 nM.

As to `Nc1ncn(Cc2ccc(-c3cccc(C4CCC(=O)NC4=O)c3Cl)cc2)n1` (stereo not drawn) [Compound 110], the Dmax under setting [1] was 89.2% and the maximal degradation (Dmax) under setting [2] is 60 to 90%. In addition, the half-maximal degradation concentration (DC50) under setting [3] was 22.3 nM and the DC50 under setting [4] is ≤ 100 nM.
